Experimental findings from patent US20090246169A1, “INDOLOPYRIDINES AS EG5 KINESIN MODULATORS” (priority 2006, published 2009) are described below.

Test [1] has as its system RKO p27 colon adenocarcinoma cells, induced (arrested). Kind of test: Alamar Blue cell viability assay, RKO p27 induced (arrested) by Ponasterone A. In kind it is cell-based. The conditions noted are these: Homo sapiens, RKOp27; anti-proliferative/cytotoxic activity, 72 hours, 10 μM Ponasterone A; read-out: −log EC50 [mol/l] RKO p27 induced (arrested) (converted). The procedure:
To determine the cell cycle specific mode of action, subclones of RKO colon adenocarcinoma cells (RKOp21 or RKOp27 as described by Schmidt et al. in Oncogene 19, 2423-2429; 2000) are seeded into 96 well flat bottom plates at a density of 16000 cells per well in a volume of 50 μl per well in DMEM growth medium with 10% FCS containing 10 μM Ponasterone A. 24 hours after seeding the 50 μl each of the compound dilutions in DMEM medium are added into each well of the 96-well plate. Each compound dilution is tested as triplicates. Wells containing untreated control cells are filled with 50 μl DMEM medium containing 1% DMSO. The cells are then incubated with the substances for 72 hours at 37° C. in a humidified atmosphere containing 5% carbon dioxide. To determine the viability of the cells, 10 μl of an Alamar Blue solution (Biosource) are added and the fluorescence is measured at an extinction of 544 nm and an emission of 590 nm. […] Viabilities are expressed as % values. […]
Representative values for anti-proliferation/cytotoxicity [measured as −log EC50 (mol/l)] determined in the aforementioned assays follow from the following tables B1 and B2, in which the numbers of the compounds correspond to the numbers of the examples.
(The colour change of resazurin is a common sign of viable cells or microbes.)

Test [2] deals with T1, Eg5 kinesin motor domains (Homo sapiens, UniProt P52732).
T1 construct: The ATPase activity of Eg5 kinesin motor domains (Cytoskeleton, cat. No. EG01); purchased Cytoskeleton EG01
T1 sequence (P52732 18-359 limits assumed): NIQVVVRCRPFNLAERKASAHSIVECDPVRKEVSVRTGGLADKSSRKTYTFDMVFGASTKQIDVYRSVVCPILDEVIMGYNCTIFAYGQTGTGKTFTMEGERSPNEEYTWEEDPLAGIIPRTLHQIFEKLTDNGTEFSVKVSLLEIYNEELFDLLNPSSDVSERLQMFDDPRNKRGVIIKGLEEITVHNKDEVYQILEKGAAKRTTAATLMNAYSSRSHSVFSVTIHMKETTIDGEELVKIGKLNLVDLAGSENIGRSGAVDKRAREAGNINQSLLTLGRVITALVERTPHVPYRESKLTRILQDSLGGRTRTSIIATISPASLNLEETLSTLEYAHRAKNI
The test is described as follows: Eg5 ATPase activity assay (Malachite green). The format is biochemical. The conditions noted are these: 300 μM ATP, 250 nM microtubules, 30 min room temperature, read-out: Inhibition of Eg5 activity, −log IC50 [mol/l] (converted). The procedure: The ATPase activity of Eg5 kinesin motor domains (Cytoskeleton, cat. No. EG01) can be used to monitor the effects of modulating agents. The test compounds are dissolved as 10 mM solutions in dimethylsulfoxide (DMSO). 2 μl of appropriate DMSO dilutions of the test compounds are added to each well of a 96 well flat bottom plate. Each compound dilution is tested as triplicates. The reagents are added and the final reaction of the standard assay contains 15 mM Pipes, pH 6.8, 5.0 mM MgCl2, 0.5 mM KCl, 1 mM EGTA, 0.1 mg/ml BSA, 1 μM Paclitaxel, 250 nM preformed microtubules (Cytoskeleton, cat. No. MT001), 300 μM ATP, and Eg5 protein (50 ng) in a reaction volume of 100 μl. The controls include buffer wells with ATP and 2% DMSO. Reactions are started by the addition of ATP, incubated at room temperature for 30 min., and terminated by removing 20 μl of the reaction volume and adding it to 80 μl of 1 M perchloric acid, followed by the addition of 80 μl Malachite green reagent. […] The reactions are incubated for a further 20 min. and then read at 615 nm.
The corresponding IC50 values of the compounds for Eg5 inhibition are determined from the concentration-effect curves.
Representative inhibitory values [measured as −log IC50 (mol/l)] determined in the aforementioned assay follow from the following table A, in which the numbers of the compounds correspond to the numbers of the examples.

Test [3] relates to RKO p27 colon adenocarcinoma cells, uninduced (proliferating). Kind of test: Alamar Blue cell viability assay, RKO p27 uninduced (proliferating). In kind it is cell-based. The note with it: Homo sapiens, RKOp27; anti-proliferative/cytotoxic activity, 72 hours, without Ponasterone A; read-out: −log EC50 [mol/l] RKO p27 uninduced (proliferating) (converted). The procedure:
The anti-proliferative/cytotoxic activity of the compounds described herein can be tested on subclones of RKO human colon adenocarcinoma cells (Schmidt et al., Oncogene 19, 2423-2429; 2000) using the Alamar Blue cell viability assay (described in O'Brien et al. Eur J Biochem 267, 5421-5426, 2000). The compounds are dissolved as 10 mM solutions in DMSO and subsequently diluted in semi-logarithmic steps. DMSO dilutions are further diluted 1:100 into Dulbecco's modified Eagle's medium (DMEM) containing 10% fetal calf serum to a final concentration twice as much as the final concentration in the test. […] To determine the viability of the cells, 10 μl of an Alamar Blue solution (Biosource) are added and the fluorescence is measured at an extinction of 544 nm and an emission of 590 nm. […] Viabilities are expressed as % values. […]
To determine the cell cycle specific mode of action, subclones of RKO colon adenocarcinoma cells (RKOp21 or RKOp27 as described by Schmidt et al. in Oncogene 19, 2423-2429; 2000) are seeded into 96 well flat bottom plates at a density of 16000 cells per well in a volume of 50 μl per well in DMEM growth medium with 10% FCS containing 10 μM Ponasterone A. 24 hours after seeding the 50 μl each of the compound dilutions in DMEM medium are added into each well of the 96-well plate. […] Viabilities are expressed as % values. […]

For `COc1ccc2[nH]c3c(c2c1)C[C@@]1(C)C(=O)N(CCN(C)C)C(=O)N1[C@@H]3c1ccccc1` (racemic) [Example 1, (3aSR,10RS)-2-(2-Dimethylamino-ethyl)-6-methoxy-3a-methyl-10-phenyl-3a,4,9,10-tetrahydro-2,9,10a-triaza-cyclopenta[b]fluorene-1,3-dione], the EC50 was at least 10000 nM in test [1] and 63.1 nM in test [3]. Besides, the IC50 in test [2] is 31.6 nM.
